Converted amounts (≈) assume the structure as drawn.
Assays:
[1] = system: A. baumannii mutant AB522; assay: MIC against Tn-seq transposon mutant AB522; format: cell-based; conditions: Acinetobacter baumannii
Protocol: (§1) During individual MIC screening, two mutants, AB522 and AB1310, were identified due to their increased sensitivity to the three macrolide antibiotics and vancomycin when compared to AB 5075 (Table 17).
(§2) Day Cultures (6 h) were subcultured to 5×10^5 CFU/mL in cation adjusted Mueller-Hinton broth (CAMHB). Aliquots (1 mL) were placed in culture tubes, and compound was added from 100 mM stock solutions, such that the compound concentration equaled the highest concentration tested (200 μM or 64 μg/mL). Samples were then aliquoted (200 μL) into the first row of wells of a 96-well plate, with all remaining wells being filled with 100 μL of initial bacterial subculture. The wells in row one were mixed five times before 100 μL was transferred to the following row (row two). Row two was then mixed five times, and 100 μL was transferred to row three. This processed was repeated until the final row had been mixed. This process provided a serial dilution of the compound. Plates were covered with Glad Press n'Seal and were incubated under stationary conditions at 37° C. for 16 hours. MIC values were recorded as the lowest concentration at which no bacterial growth was observed.

[2] = system: A. baumannii mutant AB1310; assay: MIC against Tn-seq transposon mutant AB1310; format: cell-based; conditions: Acinetobacter baumannii
Protocol: as §1, §2

A. baumannii strain 3785 = assay: Potentiation of clarithromycin and vancomycin against clinical isolate; format: cell-based, Acinetobacter baumannii; conditions: antibiotic alone
Protocol: (§3) As previously stated, A. baumannii 5075 was chosen for these studies due to its virulence and multidrug resistance, but to further analyze the activity of our lead compounds, 23 A. baumannii clinical isolates obtained from Walter Reed Army Institute of Research (WRAIR) were tested.
(§4) Day Cultures (6 h) were subcultured to 5×10^5 CFU/mL in cation adjusted Mueller-Hinton broth (CAMHB). […] One milliliter of the resulting solution was aliquoted into a separate culture tube and was dosed with antibiotic so that the resulting concentration was the highest desirable concentration to be tested. Bacteria treated with antibiotic alone were used as a control. Row one of a 96-well plate was filled with 200 μL of the antibiotic/compound solution, and the remaining rows were filled with 100 μL of the remaining 4 mL bacterial subculture. The wells in row one were mixed five times before 100 μL was transferred to the following row (row two). Row two was then mixed five times, and 100 μL was transferred to row three. This process was repeated until the second to last row had been reached. The last row is left unexposed to antibiotic in order to serve as a negative control. The antibiotic only treated bacteria was plated by aliquoting 200 μL of the treated bacteria into row one and filling the remaining rows with untreated bacteria from the original bacteria subculture. The rows were mixed in the same way as described above. Plates were covered with Glad Press n'Seal and were incubated under stationary conditions at 37° C. for 16 hours. MIC values were recorded as the lowest concentration at which no bacterial growth was observed. Fold reductions were determined by comparison of the compound treated wells with the antibiotic only treated control wells.

A. baumannii strain 4027 = assay: as above; format: cell-based, Acinetobacter baumannii; conditions: antibiotic alone
Protocol: as §3, §4

A. baumannii strain 4026 = assay: as above; format: cell-based, Acinetobacter baumannii; conditions: antibiotic alone
Protocol: as §3, §4

A. baumannii strain 3806 = assay: as above; format: cell-based, Acinetobacter baumannii; conditions: antibiotic alone
Protocol: as §3, §4

A. baumannii strain 4857 = assay: as above; format: cell-based, Acinetobacter baumannii; conditions: antibiotic alone
Protocol: as §3, §4

A. baumannii strain 5197 = assay: as above; format: cell-based, Acinetobacter baumannii; conditions: antibiotic alone
Protocol: as §3, §4

A. baumannii strain 4498 = assay: as above; format: cell-based, Acinetobacter baumannii; conditions: antibiotic alone
Protocol: as §3, §4

A. baumannii strain 4025 = assay: as above; format: cell-based, Acinetobacter baumannii; conditions: antibiotic alone
Protocol: as §3, §4

A. baumannii strain 5711 = assay: as above; format: cell-based, Acinetobacter baumannii; conditions: antibiotic alone
Protocol: as §3, §4

A. baumannii strain 8967 = assay: as above; format: cell-based, Acinetobacter baumannii; conditions: antibiotic alone
Protocol: as §3, §4

AB5075 [3] = assay: G. mellonella model infected with AB5075, survival; format: in vivo, Galleria mellonella
Protocol: Galleria mellonella larvae (Speedy Worm, Alexandria, Minn.) were used within ten days of shipment from the vendor. After reception of worms, larvae were kept in the dark at room temperature for at least 24 h before infection. Larvae weighing between 200 to 300 mg were used in the survival assay. Using a 10 μL glass syringe (Hamilton, Reno, Nev.) fitted with a 30 G needle (Exel International, St. Petersburg, Fl), 5 μL of the desired compound and concentration were injected into the last left proleg. After 2.5 h, a second 5 μL injection containing 6×10^5 CFU of Acinetobacter baumannii 5075 was injected into the second to last left proleg. Injected worms were left at room temperature in the dark while being assessed at 24 h intervals over 6 days. […] Experiment was repeated 7 times using 10 larvae per experimental group.

AB5075 [4] = assay: Checkerboard assay for FIC determination with colistin; format: cell-based, Acinetobacter baumannii; conditions: chequerboard, ΣFIC≥2 considered antagonistic
Protocol: Against AB5075, we determined that the ΣFIC with compound 1 to be 17 and the ΣFIC with compound 10 to be 33. These ΣFIC values indicate that both compounds are highly antagonistic with colistin as a ΣFIC≥2 is considered antagonistic.
Day Cultures (6 h) of A. baumannii 5075 were subcultured to 5×10^5 CFU/mL in cation adjusted Mueller-Hinton broth (CAMHB). 100 μL of the inoculated media was distributed into all wells of a 96-well plate except well 1A. Inoculated CAMHB (200 μL) containing compound (twice the highest concentration tested) was added to well 1A, and 100 μL of the same sample was added to wells 2A-12A. The contents in column A were mixed five times before 100 μL was transferred to column B. The contents of column B were mixed 5 times before transferring to column C. This process was repeated with the remainder of the columns up to column G. Column H was not mixed to allow determination of the antibiotic MIC alone. […] Row 12 was not mixed so that the MIC of the compound alone could be determined. The MICs of both compound and antibiotic alone were recorded, as well as the wells containing the combination. The ΣFICs were calculated as follows: ΣFIC=FIC (Compound)+FIC (antibiotic), where FIC (compound) is the MIC of the compound in the combination/MIC of the compound alone and the FIC (antibiotic) is the MIC of the antibiotic in combination/the MIC of the antibiotic alone. […]

[5] = system: A. baumannii strain 5075 (AB5075); assay: Broth microdilution MIC determination of compound alone; format: cell-based; conditions: Acinetobacter baumannii; compound alone; AB5075; read-out: MIC
Protocol: Our initial screening began by testing a diverse selection of 2-AI compounds from our internal library for their minimal inhibitory concentrations (MIC) against A. baumannii isolate 5075.
as §2

[6] = system: A. baumannii strain 5075 (AB5075); assay: Macrolide sensitization / antibiotic resensitization: antibiotic MIC in presence of compound (broth microdilution); format: cell-based, Acinetobacter baumannii; conditions: compound at 30 μM vs antibiotic alone; AB5075
Protocol: A. baumannii 5075 was plated on LB agar, then grown in CAMHB for 6-8 h and this culture was used to inoculate fresh CAMHB (5×10^5 CFU/mL). The resulting suspension was aliquoted (5 mL) into culture tubes and compound, from 100 mM DMSO stock, was added. One aliquot was not treated (control). 1 mL of each sample was transferred to a new culture tube and antibiotic was added. Rows 2-12 of a 96-well microtiter plate were filled with 100 μL/well from the remaining 4 mL bacterial subcultures, allowing the concentration of compound to be kept uniform throughout the antibiotic dilution procedure. Samples containing antibiotic were aliquoted (200 μL) into the corresponding first row wells of the microtiter plate. Row 1 wells were mixed 6 to 8 times then 100 μL was withdrawn and transferred to row 2. Row 2 wells were mixed 6 to 8 times, followed by a 100 μL transfer from row 2 to row 3. This procedure was repeated to serially dilute the rest of the rows of the microtiter plate, with the exception of the final row, to which no antibiotic was added (to check for growth of bacteria in the presence of compound alone). The microtiter plate was then covered, placed in a covered damp plastic container and incubated under stationary conditions at 37° C. After 16-18 hrs minimum inhibitory concentration (MIC) values were recorded as the lowest concentration of antibiotic at which there was no visible growth of bacteria. Experiments were carried out in duplicate each time and repeated at least twice.
The difference in antibiotic MIC between the control (no compound) sample, and the samples containing each compound was recorded as the fold-reduction.
as §4

In the case of `CC[C@H]1OC(=O)[C@H](C)[C@@H](O[C@H]2C[C@@](C)(OC)[C@@H](O)[C@H](C)O2)[C@H](C)[C@@H](O[C@@H]2O[C@H](C)C[C@H](N(C)C)[C@H]2O)[C@](C)(OC)C[C@@H](C)C(=O)[C@H](C)[C@@H](O)[C@]1(C)O` [Clarithromycin, reference compound], the MIC [1] is reported as 2 µg/mL (≈ 2.67 µM), the MIC [2] is reported as 2 µg/mL (≈ 2.67 µM) and the “MIC (μg/mL) of the antibiotic” value (A. baumannii strain 3785) is reported as 64 µg/mL. For the same molecule, the “MIC (μg/mL) of the antibiotic” value (A. baumannii strain 4027) was 64 µg/mL, the “MIC (μg/mL) of the antibiotic” value (A. baumannii strain 4026) was 64 µg/mL and the “MIC (μg/mL) of the antibiotic” value (A. baumannii strain 3806) was 16 µg/mL. For the same molecule, the “MIC (μg/mL) of the antibiotic” value (A. baumannii strain 4857) was 64 µg/mL, the “MIC (μg/mL) of the antibiotic” value (A. baumannii strain 5197) was 64 µg/mL and the “MIC (μg/mL) of the antibiotic” value (A. baumannii strain 4498) was 64 µg/mL. The “MIC (μg/mL) of the antibiotic” value (A. baumannii strain 4025) was 64 µg/mL, the “MIC (μg/mL) of the antibiotic” value (A. baumannii strain 5711) was 64 µg/mL and the “MIC (μg/mL) of the antibiotic” value (A. baumannii strain 8967) was 16 µg/mL. For the same molecule, the “survival after 6 days” value (AB5075 [3]; clarithromycin alone at 25 mg/kg) was 1%.
`Nc1nc(-c2ccc(NC(=O)c3c(Cl)cc(Cl)cc3Cl)cc2)c[nH]1` [Compound 10] was tested, and the ΣFIC with colistin (AB5075 [4]) was 33, the MIC [5] was 100 µM (≈ 38.2 µg/mL) and the “Fold reduction (erythromycin MIC)” value [6] was 8 fold.
In the case of `CO[C@H]1/C=C/O[C@@]2(C)Oc3c(C)c(O)c4c(O)c(c(/C=N/N5CCN(C)CC5)c(O)c4c3C2=O)NC(=O)/C(C)=C\C=C\[C@H](C)[C@H](O)[C@@H](C)[C@@H](O)[C@@H](C)[C@H](OC(C)=O)[C@@H]1C` [rifampin, reference compound], the “survival after 6 days” value (AB5075 [3]; rifampin at 30 mg/kg, one injection) is reported as 64%.
